Here are results for 34 molecules from patent publication US8802664B2 (Bioproject, priority 2010, dated 2014).

In one series the target is T1, human H4 receptor (Homo sapiens, UniProt Q9H3N8).
T1 construct: expressed in transfected cells
Kind of series: [3H]Histamine binding on membranes of CHO cells stably expressing human H4 receptor. In outline: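 Nonspecific signal was taken as that remaining with 10 μM JNJ 7777120 present. Assays contained 20 μg CHO-derived hH4 membrane protein in Tris/HCl–EDTA buffer (pH 7.4) and were terminated on polyethyleneimine-soaked filters, with bound tritium quantified by scintillation.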

A word on the melting point: it is the temperature, or range, at which the solid turns liquid.

T1 sequence (Q9H3N8 whole entry): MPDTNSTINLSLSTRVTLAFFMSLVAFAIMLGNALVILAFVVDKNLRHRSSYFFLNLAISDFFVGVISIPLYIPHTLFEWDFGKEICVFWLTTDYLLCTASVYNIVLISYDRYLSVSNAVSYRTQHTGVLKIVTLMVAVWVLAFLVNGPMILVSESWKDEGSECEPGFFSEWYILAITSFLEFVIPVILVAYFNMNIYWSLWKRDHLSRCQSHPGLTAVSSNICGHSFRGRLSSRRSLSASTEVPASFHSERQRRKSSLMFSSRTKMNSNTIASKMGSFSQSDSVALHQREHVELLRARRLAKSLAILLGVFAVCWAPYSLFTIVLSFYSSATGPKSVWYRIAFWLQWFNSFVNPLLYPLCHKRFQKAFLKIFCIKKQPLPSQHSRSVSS

For the molecule `CN1CCC(OC(c2nc3ccccc3[nH]2)c2c(O)cccc2F)CC1` (centres unmarked) [Example 582], the melting point was 129 °C. This molecule gave a Ki or IC50 activity class on human H4 receptor of under 30 nM.
For `CN1CCC(OC(c2cccc(SCCCCO)c2)c2nc3cc(F)c(F)cc3[nH]2)CC1` (centres unmarked) [Example 470], in that order: 60 °C and under 300 nM.
For the molecule `CN1CCC(OC(c2nc3ccccc3[nH]2)c2ccc3c(c2O)CCCC3)CC1` (centres unmarked) [Example 619], the melting point turned out to be 125 °C. The molecule further yielded a Ki or IC50 activity class at human H4 receptor of under 300 nM.
As to `CN1CCC(OC(c2cccc(Br)c2)c2nc3ccccc3[nH]2)CC1` (single isomer, unassigned) [Example 564, 2-[(3-bromophenyl)(1-methylpiperidin-4-yloxy)methyl]-1H-benzimidazole], the melting point came to 85 °C. In addition, the Ki or IC50 activity class on human H4 receptor was under 30 nM.
For `CCc1cccc(C(OC2CCN(C)CC2)c2nc3ccccc3[nH]2)c1O` (centres unmarked) [Example 616], in that order: 105 °C and under 30 nM.
For `CCOc1ccc(O)c(C(OC2CCN(C)CC2)c2nc3ccccc3[nH]2)c1` (centres unmarked) [Example 576], in that order: 213 °C and under 30 nM.
For `CN1CCC(OC(c2nc3ccccc3[nH]2)c2cc(C(C)(C)c3ccccc3)ccc2O)CC1` (centres unmarked) [Example 604], the melting point was determined as 130 °C. Also, at human H4 receptor, the Ki or IC50 activity class is under 300 nM.
The corresponding values for `CN1CCC(OC(c2nc3ccccc3[nH]2)c2cc(-c3ccccc3)ccc2O)CC1` (centres unmarked) [Example 589] are 140 °C and under 1000 nM.
The corresponding values for `CN1CCC(OC(c2cccc(SCCCN)c2)c2nc3ccccc3[nH]2)CC1` (centres unmarked) [Example 368, 3-{3-[(1H-benzimidazol-2-yl)(1-methylpiperidin-4-yloxy)methyl]phenylsulfanyl}propylamine] are 126 °C and under 30 nM.
As to `CN1CCC(NC(c2cccc(OCc3cccc(F)c3F)c2)c2nc3ccccc3[nH]2)CC1` (centres unmarked) [Example 162, {(1H-benzimidazol-2-yl)[3-(2,3-difluoro-benzyloxy)phenyl]methyl}(1-methylpiperidin-4-yl)amine], the melting point is 151 °C. On human H4 receptor, this molecule yielded a Ki or IC50 activity class of under 30 nM.
In turn, `CN1CCC(OC(c2nc3ccccc3s2)c2cccc3ccccc23)CC1` (centres unmarked) [Example 17, 2-[(1-methylpiperidin-4-yloxy)naphthalen-1-ylmethyl]benzothiazole] gave a melting point of 106.5 °C. On human H4 receptor, this molecule yielded a Ki or IC50 activity class of under 1000 nM.
The molecule `CN1CCC(OC(c2cccc(C#CC3CNC3)c2)c2nc3ccccc3[nH]2)CC1` (centres unmarked) [Example 388, 2-[(3-azetidin-3-ylethynylphenyl)(1-methylpiperidin-4-yloxy)methyl]-1H-benzimidazole] had a melting point of 131 °C. At human H4 receptor, the Ki or IC50 activity class was under 1000 nM.
The molecule `CN1CCC(OC(c2cccc(Br)c2)c2nc3cc(F)ccc3[nH]2)CC1` (single isomer, unassigned) [Example 567, 2-[(3-bromophenyl)(1-methylpiperidin-4-yloxy)methyl]-5-fluoro-1H-benzimidazole] showed a melting point of 89 °C. This molecule also gave a Ki or IC50 activity class on human H4 receptor of under 300 nM.
For `CC(C)CCOc1cccc(C(NC2CCN(C)CC2)c2nc3ccccc3[nH]2)c1` (centres unmarked) [Example 68, {(1H-benzimidazol-2-yl)[3-(3-methylbutoxy)phenyl]methyl}(1-methylpiperidin-4-yl)amine], in that order: 70 °C and under 300 nM.
`CN1CCC(OC(c2cccc(SCCNC(=N)NC(=O)OC(C)(C)C)c2)c2nc3ccccc3s2)CC1` (centres unmarked) [Example 304, N-tert-butoxycarbonyl-N′-(2-{3-[(benzothiazol-2-yl)(1-methylpiperidin-4-yloxy)methyl]phenylsulfanyl}ethyl)guanidine] yielded a melting point of 110 °C. The molecule also gave a Ki or IC50 activity class at human H4 receptor of under 30 nM.
`CN1CCC(OC(c2cccc(OCCCN)c2)c2nc3ccccc3[nH]2)CC1` (centres unmarked) [Example 327, 3-{3-[(1H-benzimidazol-2-yl)(1-methylpiperidin-4-yloxy)methyl]phenoxy}propylamine]: the melting point stood at 97 °C. The molecule also gave a Ki or IC50 activity class at human H4 receptor of under 300 nM.
With `CCOc1cccc(C(NC2CCN(C)CC2)c2nc3ccccc3[nH]2)c1` (centres unmarked) [Example 83, [(1H-benzimidazol-2-yl)(3-ethoxyphenyl)methyl](1-methylpiperidin-4-yl)amine], the melting point was found to be 74 °C. At human H4 receptor, this molecule came in with a Ki or IC50 activity class of under 300 nM.
The corresponding values for `CN1CCC(OC(c2cccc(CCCCCCNC(=N)NC(=O)OC(C)(C)C)c2)c2nc3ccccc3[nH]2)CC1` (centres unmarked) [Example 364, N-tert-butoxycarbonyl-N′-(6-{3-[(1H-benzimidazol-2-yl)(1-methylpiperidin-4-yloxy)methyl]phenyl}hexyl)guanidine] are 90 °C and under 1000 nM.
`CN1CCC(OC(c2cccc(Br)c2)c2nc3ccccc3s2)CC1` (centres unmarked) [Example 27, 2-[(3-bromo-phenyl)(1-methylpiperidin-4-yloxy)methyl]benzothiazole] displayed a melting point of 99 °C. Moreover, the Ki or IC50 activity class at human H4 receptor is under 30 nM.
Molecule `CN1CCC(OC(c2nc3ccccc3[nH]2)c2cc(OCCCF)ccc2O)CC1` (centres unmarked) [Example 606] displayed a melting point of 114 °C. This molecule also displayed a Ki or IC50 activity class at human H4 receptor of under 300 nM.
For `CN1CCC(OC(c2ccccc2)c2nc3cccc(O)c3[nH]2)CC1` (centres unmarked) [Example 210, 2-[(1-methylpiperidin-4-yloxy)phenylmethyl]-3H-benzimidazol-4-ol], in that order: 170.5 °C and under 1000 nM.
`CN1CCC(OC(c2nc3ccccc3[nH]2)c2cc(Oc3ccccc3)ccc2O)CC1` (centres unmarked) [Example 609] displayed a melting point of 140 °C. This molecule also registered a Ki or IC50 activity class on human H4 receptor of under 300 nM.
Regarding `CN1CCC(OC(c2cccc(N)c2)c2nc3ccccc3[nH]2)CC1` (centres unmarked) [Example 224, 3-[(1H-benzimidazol-2-yl)(1-methylpiperidin-4-yloxy)methyl]phenylamine], the melting point was 100 °C. Moreover, at human H4 receptor, the Ki or IC50 activity class is under 300 nM.
The molecule `CCCNC(=O)c1cccc(C(OC2CCN(C)CC2)c2nc3ccccc3s2)c1` (centres unmarked) [Example 220, 3-[benzothiazol-2-yl(1-methylpiperidin-4-yloxy)methyl]-N-propylbenzamide] displayed a melting point of 60 °C. The Ki or IC50 activity class at human H4 receptor is under 30 nM.
The corresponding values for `CSc1ccc(O)c(C(OC2CCN(C)CC2)c2nc3ccccc3[nH]2)c1` (centres unmarked) [Example 587] are 138 °C and under 30 nM.
Consider `COc1cc(F)c(O)c(C(OC2CCN(C)CC2)c2nc3ccccc3[nH]2)c1` (centres unmarked) [Example 608], for which the melting point was determined as 132 °C. At human H4 receptor, the Ki or IC50 activity class was under 300 nM.
The molecule `CN1CCC(OC(c2cccc(N=[N+]=[N-])c2)c2nc3ccccc3[nH]2)CC1` (centres unmarked) [Example 231, 2-[(3-azidophenyl)(1-methylpiperidin-4-yloxy)methyl]-1H-benzimidazole] showed a melting point of 53 °C. This molecule also yielded a Ki or IC50 activity class on human H4 receptor of under 300 nM.
For `CN1CCC(OC(c2nc3ccccc3[nH]2)c2cccc(SCCN)c2F)CC1` (centres unmarked) [Example 352, 2-{3-[(1H-benzimidazol-2-yl)(1-methylpiperidin-4-yloxy)methyl]-2-fluorophenylsulfanyl}ethylamine], the melting point was found to be 204 °C. This molecule returned a Ki or IC50 activity class on human H4 receptor of under 300 nM.
On to `CC(C)c1cccc(C(NC2CCN(C)CC2)c2nc3ccccc3[nH]2)c1` (centres unmarked) [Example 66, [(1H-benzimidazol-2-yl)(3-isopropylphenyl)methyl](1-methylpiperidin-4-yl)amine], for which the melting point amounted to 82 °C. Besides, the Ki or IC50 activity class at human H4 receptor is under 1000 nM.
On to `Cc1c(F)cc(C(OC2CCN(C)CC2)c2nc3ccccc3[nH]2)c(O)c1F` (centres unmarked) [Example 624], for which the melting point turned out to be 146 °C. This molecule also came in with a Ki or IC50 activity class at human H4 receptor of under 30 nM.
Molecule `CN1CCC(OC(c2cccc(OCCCCCN3CCN(C(=O)OC(C)(C)C)CC3)c2)c2nc3ccccc3s2)CC1` (centres unmarked) [Example 362, 4-(5-{3-[benzothiazol-2-yl(1-methylpiperidin-4-yloxy)methyl]phenoxy}pentyl)piperazine-1-carboxylic acid tert-butyl ester] displayed a melting point of 131 °C. On human H4 receptor, the Ki or IC50 activity class was under 1000 nM.
Consider `CN1CCC(OC(c2nc3ccccc3[nH]2)c2ccc(F)c(F)c2O)CC1` (centres unmarked) [Example 625, 6-[(1H-benzimidazol-2-yl)(1-methylpiperidin-4-yloxy)methyl]-2,3-difluorophenol], for which the melting point was determined as 184 °C. The molecule also showed a Ki or IC50 activity class at human H4 receptor of under 30 nM.
For `CN1CCC(OC(c2nc3ccccc3[nH]2)c2ccc(Cl)cc2O)CC1` (centres unmarked) [Example 585], the melting point is 142 °C. This molecule also registered a Ki or IC50 activity class at human H4 receptor of under 30 nM.
With `CN1CCC(OC(c2ccc(F)cc2)c2nc3ccccc3[nH]2)CC1` (centres unmarked) [Example 179, 2-[(4-fluorophenyl)(1-methylpiperidin-4-yloxy)methyl]-1H-benzimidazole], the melting point turned out to be 131 °C. This molecule also had a Ki or IC50 activity class on human H4 receptor of under 300 nM.
